From patent US20080200454A1, “CARBON-LINKED TETRAHYDRO-PYRAZOLO-PYRIDINE MODULATORS OF CATHEPSIN S” (priority 2007, published 2008)
Read-outs that look alike come from different tables or passages of the source.

Biological target: Recombinant human cathepsin S (CatS) (Homo sapiens, UniProt P25774)
Test: Recombinant human cathepsin S (CatS) inhibition assay, fluorogenic substrate Z-Valine-Valine-Arginine-AMC;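 also: Baculovirus-expressed CatS in pH 5.0 sodium acetate buffer with DTT and NaCl, fluorescence read each minute over 20 min, inhibition derived from rate slope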

Recombinant human cathepsin S (CatS), sequence (P25774 115-331): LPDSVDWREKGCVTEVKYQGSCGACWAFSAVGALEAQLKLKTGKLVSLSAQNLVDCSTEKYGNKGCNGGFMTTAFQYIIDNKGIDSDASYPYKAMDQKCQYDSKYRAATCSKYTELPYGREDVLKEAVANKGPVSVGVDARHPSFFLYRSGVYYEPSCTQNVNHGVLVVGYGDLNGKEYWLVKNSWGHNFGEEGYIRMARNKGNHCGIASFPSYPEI

IC50 [nM]	SMILES	IC50 (CatS IC50) [nM]
	NC(=O)C(=O)N1CCc2c(c(-c3ccc(Cl)c(C#Cc4ccc(Cl)c(C(=O)NCCN5CCOCC5)c4)c3)nn2CCCN2CCCCC2)C1 [Example 591, 5-[(5-{5-[Amino(oxo)acetyl]-1-(3-piperidin-1-ylpropyl)-4,5,6,7-tetrahydro-1H-pyrazolo[4,3-c]pyridin-3-yl}-2-chlorophenyl)ethynyl]-2-chloro-N-(2-morpholin-4-ylethyl)benzamide]	30
20	CCNCc1cc(C#Cc2cc(-c3nn(CCCN4CCCCC4)c4c3CN(C(=O)C(N)=O)CC4)ccc2Cl)ccc1Cl [Example 592, 2-{3-[4-Chloro-3-({4-chloro-3-[(ethylamino)methyl]phenyl}ethynyl)phenyl]-1-(3-piperidin-1-ylpropyl)-1,4,6,7-tetrahydro-5H-pyrazolo[4,3-c]pyridin-5-yl}-2-oxoacetamide]	
60	CS(=O)(=O)N1CCc2c(c(-c3ccc(Cl)c(C#Cc4ccc(Cl)c(C(=O)NCCN5CCOCC5)c4)c3)nn2CCCN2CCCCC2)C1 [Example 593, 2-Chloro-5-({2-chloro-5-[5-(methylsulfonyl)-1-(3-piperidin-1-ylpropyl)-4,5,6,7-tetrahydro-1H-pyrazolo[4,3-c]pyridin-3-yl]phenyl}ethynyl)-N-(2-morpholin-4-ylethyl)benzamide]	
30	CCNCc1cc(C#Cc2cc(-c3nn(CCCN4CCCCC4)c4c3CN(S(C)(=O)=O)CC4)ccc2Cl)ccc1Cl [Example 594, N-[2-Chloro-5-({2-chloro-5-[5-(methylsulfonyl)-1-(3-piperidin-1-ylpropyl)-4,5,6,7-tetrahydro-1H-pyrazolo[4,3-c]pyridin-3-yl]phenyl}ethynyl)benzyl]ethanamine]	
	NC(=O)C(=O)N1CCc2c(c(-c3ccc(Cl)c(C#Cc4ccc(Cl)c(CNC5CCCC5)c4)c3)nn2CCCN2CCCCC2)C1 [Example 595, 2-{3-[4-Chloro-3-({4-chloro-3-[(cyclopentylamino)methyl]phenyl}ethynyl)phenyl]-1-(3-piperidin-1-ylpropyl)-1,4,6,7-tetrahydro-5H-pyrazolo[4,3-c]pyridin-5-yl}-2-oxoacetamide]	10
	NC(=O)N1CCc2c(c(-c3ccc(Cl)c(C#Cc4ccc(Cl)c(CNC5CC5)c4)c3)nn2CCCN2CCCCC2)C1 [Example 596, 3-[4-Chloro-3-({4-chloro-3-[(cyclopropylamino)methyl]phenyl}ethynyl)phenyl]-1-(3-piperidin-1-ylpropyl)-1,4,6,7-tetrahydro-5H-pyrazolo[4,3-c]pyridine-5-carboxamide]	30
	CS(=O)(=O)N1CCc2c(c(-c3ccc(Cl)c(C#Cc4ccc(Cl)c(CNC5CCCC5)c4)c3)nn2CCCN2CCCCC2)C1 [Example 597, N-[2-Chloro-5-({2-chloro-5-[5-(methylsulfonyl)-1-(3-piperidin-1-ylpropyl)-4,5,6,7-tetrahydro-1H-pyrazolo[4,3-c]pyridin-3-yl]phenyl}ethynyl)benzyl]cyclopentanamine]	40
	C[C@H]1COCCN1CCCn1nc(-c2ccc(Cl)c(C#Cc3ccc(Cl)c(C(=O)NCC4CNC4)c3)c2)c2c1CCN(C(=O)C(N)=O)C2 [Example 598, 5-{[5-(5-[Amino(oxo)acetyl]-1-{3-[(3S)-3-methylmorpholin-4-yl]propyl}-4,5,6,7-tetrahydro-1H-pyrazolo[4,3-c]pyridin-3-yl)-2-chlorophenyl]ethynyl}-N-(azetidin-3-ylmethyl)-2-chlorobenzamide]	30
30	NC(=O)N1CCc2c(c(-c3ccc(Cl)c(C#Cc4ccc(Cl)c(CNC5CCCC5)c4)c3)nn2CCCN2CCSCC2)C1 [Example 599, 3-[4-Chloro-3-({4-chloro-3-[(cyclopentylamino)methyl]phenyl}ethynyl)phenyl]-1-(3-thiomorpholin-4-ylpropyl)-1,4,6,7-tetrahydro-5H-pyrazolo[4,3-c]pyridine-5-carboxamide]	
30	NC(=O)C(=O)N1CCc2c(c(-c3ccc(Cl)c(C#Cc4ccc(Cl)c(CNC5CC5)c4)c3)nn2CCCN2CCCCC2)C1 [Example 600, 2-{3-[4-Chloro-3-({4-chloro-3-[(cyclopropylamino)methyl]phenyl}ethynyl)phenyl]-1-(3-piperidin-1-ylpropyl)-1,4,6,7-tetrahydro-5H-pyrazolo[4,3-c]pyridin-5-yl}-2-oxoacetamide]	
30	NC(=O)C(=O)N1CCc2c(c(-c3ccc(Cl)c(C#Cc4ccc(Cl)c(CN5CCOCC5)c4)c3)nn2CCCN2CCCCC2)C1 [Example 601, 2-[3-(4-Chloro-3-{[4-chloro-3-(morpholin-4-ylmethyl)phenyl]ethynyl}phenyl)-1-(3-piperidin-1-ylpropyl)-1,4,6,7-tetrahydro-5H-pyrazolo[4,3-c]pyridin-5-yl]-2-oxoacetamide]	
40	NC(=O)N1CCc2c(c(-c3ccc(Cl)c(C#Cc4ccc(Cl)c(CN5CCOCC5)c4)c3)nn2CCCN2CCCCC2)C1 [Example 602, 3-(4-Chloro-3-{[4-chloro-3-(morpholin-4-ylmethyl)phenyl]ethynyl}phenyl)-1-(3-piperidin-1-ylpropyl)-1,4,6,7-tetrahydro-5H-pyrazolo[4,3-c]pyridine-5-carboxamide]	
	CS(=O)(=O)N1CCc2c(c(-c3ccc(Cl)c(C#Cc4ccc(Cl)c(CNC5CC5)c4)c3)nn2CCCN2CCCCC2)C1 [Example 603, N-[2-Chloro-5-({2-chloro-5-[5-(methylsulfonyl)-1-(3-piperidin-1-ylpropyl)-4,5,6,7-tetrahydro-1H-pyrazolo[4,3-c]pyridin-3-yl]phenyl}ethynyl)benzyl]cyclopropanamine]	50
	CS(=O)(=O)N1CCc2c(c(-c3ccc(Cl)c(C#Cc4ccc(Cl)c(CN5CCOCC5)c4)c3)nn2CCCN2CCCCC2)C1 [Example 604, 3-(4-Chloro-3-{[4-chloro-3-(morpholin-4-ylmethyl)phenyl]ethynyl}phenyl)-5-(methylsulfonyl)-1-(3-piperidin-1-ylpropyl)-4,5,6,7-tetrahydro-1H-pyrazolo[4,3-c]pyridine]	80
	NC(=O)N1CCc2c(c(-c3ccc(Cl)c(C#Cc4ccc(Cl)c(CNC5CC5)c4)c3)nn2CCCN2CCSCC2)C1 [Example 605, 3-[4-Chloro-3-({4-chloro-3-[(cyclopropylamino)methyl]phenyl}ethynyl)phenyl]-1-(3-thiomorpholin-4-ylpropyl)-1,4,6,7-tetrahydro-5H-pyrazolo[4,3-c]pyridine-5-carboxamide]	40
	NC(=O)N1CCc2c(c(-c3ccc(Cl)c(C#Cc4ccc(Cl)c(CN5CCOCC5)c4)c3)nn2CCCN2CCSCC2)C1 [Example 606, 3-(4-Chloro-3-{[4-chloro-3-(morpholin-4-ylmethyl)phenyl]ethynyl}phenyl)-1-(3-thiomorpholin-4-ylpropyl)-1,4,6,7-tetrahydro-5H-pyrazolo[4,3-c]pyridine-5-carboxamide]	40
	NC(=O)N1CCc2c(c(-c3ccc(Cl)c(C#Cc4ccc(C(=O)NCCN5CCOCC5)cc4)c3)nn2CCCN2CCSCC2)C1 [Example 607, 3-[4-Chloro-3-({4-[(2-morpholin-4-ylethyl)carbamoyl]phenyl}ethynyl)phenyl]-1-(3-thiomorpholin-4-ylpropyl)-1,4,6,7-tetrahydro-5H-pyrazolo[4,3-c]pyridine-5-carboxamide]	50
